Our source for the Ki values is ChEMBL document CHEMBL1127634, “Calculation of relative differences in the binding free energies of HIV1 protease inhibitors: a thermodynamic cycle perturbation approach” (J Med Chem, 1994).

The Ki is the equilibrium dissociation constant of an inhibitor or competing ligand from its target. Read a low Ki as tighter binding.

The target of this assay is Human immunodeficiency virus type 1 protease (Human immunodeficiency virus 1, UniProt Q72874). Put plainly: Binding affinity against HIV -1 protease.
Take `C[C@H](N)C(=O)N[C@@H](C)C(=O)N[C@@H](Cc1ccccc1)[C@@H](O)CCC(=O)NC(c1ccccc1)c1cc2ccccc2[nH]1` (stereo not given in full): the Ki was 43 nM.

Turning to `C[C@H](N)C(=O)N[C@@H](C)C(=O)N[C@@H](Cc1ccccc1)[C@@H](O)CCC(=O)NC(c1ccccc1)c1nc2ccccc2[nH]1` (stereo not given in full), the Ki was 5370 nM. As for `O=C(CC[C@H](O)[C@H](Cc1ccccc1)NC(=O)CC(NC(=O)c1ccc2ccccc2n1)C(=O)O)NC(c1cccc(C(F)(F)F)c1)c1cc2ccccc2[nH]1` (stereo not given in full), the Ki was found to be 33 nM. With `Cc1cccc(C(NC(=O)CC[C@H](O)[C@H](Cc2ccccc2)NC(=O)CC(NC(=O)c2ccc3ccccc3n2)C(=O)O)c2cc3ccccc3[nH]2)c1` (stereo not given in full), the Ki is 39 nM.

In turn, `O=C(CC[C@H](O)[C@H](Cc1ccccc1)NC(=O)CC(NC(=O)c1ccc2ccccc2n1)C(=O)O)NC(c1ccccc1)c1cc2ccccc2[nH]1` (stereo not given in full) came in with a Ki of 200 nM.
